Experimental findings from patent US9518065B2, “IRAK inhibitors and uses thereof” (NIMBUS IRIS, INC., priority 2013, dated 2016) are described below.

In the test the target is T1, IRAK4 (Homo sapiens, UniProt Q9NWZ3).
T1 construct: purchased CARNA Bioscience 09-145
T1 sequence (Q9NWZ3 1-460): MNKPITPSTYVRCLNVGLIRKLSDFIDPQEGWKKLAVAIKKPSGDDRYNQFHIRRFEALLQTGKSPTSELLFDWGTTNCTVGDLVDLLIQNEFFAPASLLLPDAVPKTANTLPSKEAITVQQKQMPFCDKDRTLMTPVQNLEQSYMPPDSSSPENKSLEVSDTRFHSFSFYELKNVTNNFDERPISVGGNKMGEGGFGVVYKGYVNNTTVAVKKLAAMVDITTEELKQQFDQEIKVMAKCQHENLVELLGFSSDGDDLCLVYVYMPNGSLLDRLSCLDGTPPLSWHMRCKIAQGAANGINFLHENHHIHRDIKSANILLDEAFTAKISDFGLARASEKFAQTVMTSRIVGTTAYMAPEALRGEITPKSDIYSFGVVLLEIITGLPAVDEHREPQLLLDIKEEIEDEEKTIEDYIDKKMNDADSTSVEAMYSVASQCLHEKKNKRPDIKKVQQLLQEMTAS
Description: IRAK-4 activity inhibition assay (Caliper). The format is biochemical. The conditions noted are these: 3.5 nM IRAK4, 37 μM ATP, 1.5 μM Peptide 8. The method, then: A 1× kinase base buffer was prepared from 50 mM HEPES, pH 7.5 and 0.0015% Brij-35. A stop buffer was prepared from 100 mM HEPES, pH 7.5, 0.015% Brij-35, 0.2% Coating Reagent #3, and 50 mM EDTA.
Test compound was diluted to 50× of the final desired highest inhibitor concentration in reaction by 100% DMSO. 100 ul of this compound dilution was transferred to a well in a 96-well plate. For example, if desired highest inhibitor concentration in IC50 determination is 100 uM, then prepare 5000 uM of compound DMSO solution in this step.
Test compound was serially diluted by transferring 30 μl to 60 μl of 100% DMSO in the next well and so forth for a total of 10 concentrations. 100 μl of 100% DMSO was added to two empty wells for no compound control and no enzyme control in the same 96-well plate.
A new 96-well plate was marked as intermediate plate. 5 μl of compound serial dilution was transferred from source plate to the corresponding wells of the intermediate plate. 45 μl of 1× kinase base buffer (KB buffer) was added to each well of the intermediate plate. The intermediate plate was placed for 10 min on a shaker.
5 μl of each well was transferred from the 96-well intermediate plate to a 384-well plate in duplicates. For example, A1 of the 96-well plate is transferred to A1 and A2 of the 384-well plate. A2 of the 96-well plate is transferred to A3 and A4 of the 384-well plate, and so on.
IRAK4 and DTT in 1× kinase base buffer was added. The 2.5× enzyme mix contained 8.8 nM IRAK4 and 5 mM DTT.
Peptide 8, ATP, MgCl2 and MnCl2 were added in the 1× kinase base buffer. The 2.5× peptide mix contained 3.75 μM peptide 8, 92.5 μM ATP, 12.5 mM MgCl2 and 2.5 mM MnCl2.
Assay plate already contained 5 μl of compound in 10% DMSO. Added 10 μl of 2.5× enzyme solution to each well of the 384-well assay plate, except no enzyme control wells. The final concentration of IRAK4 in reaction was 3.5 nM. Added 10 μl of 1× kinase base buffer to no enzyme control wells in the assay plate. Incubated at room temperature for 10 min.
Added 10 μl of 2.5× peptide solution to each well of the 384-well assay plate. The final concentration of Peptide 8 and ATP was 1.5 μM and 37 μM, respectively. Incubated at 28° C. for 40 minutes. Added 25 μl of stop buffer to stop reaction. Collected data on Caliper.
Copied conversion % data from Caliper program. Converted conversion % values to percent inhibition values. Percent inhibition=(max-conversion %)/(max-min)*100, where “max” means the conversion % of DMSO control and “min” means the conversion % of no enzyme control.
The compound numbers correspond to the compound numbers in Table 1. Compounds having an activity designated as “A” provided an IC50≦1 μM; compounds having an activity designated as “B” provided an IC50 of 1-5 μM; compounds having an activity designated as “C” provided an IC50 of ≧5 μM. “NA” stands for “not assayed.”
For `CCc1nc2c(N[C@H]3CC[C@H](N(C)C)CC3)ncnc2s1` [Compound I-1, (1r,4r)-N1-(2-ethylthiazolo[5,4-d]pyrimidin-7-yl)-N4,N4-dimethylcyclohexane-1,4-diamine], the IC50 – broadly, the point on the concentration scale where inhibition reaches its midpoint – lay within 1000 to 5000 nM.

For the molecule `CC(C)c1nc2c(N[C@H]3CC[C@H](N(C)C)CC3)ncnc2s1` [Compound I-2, (1r,4r)-N-1-(2-isopropylthiazolo[5,4-d]pyrimidin-7-yl)-N4,N4-dimethylcyclohexane-1,4-diamine], the IC50 is 1000 to 5000 nM. With `CCc1nc2c(O[C@H]3CC[C@H](N(C)C)CC3)ncnc2s1` [Compound I-3, (1r,4r)-4-((2-ethylthiazolo[5,4-d]pyrimidin-7-yl)oxy)-N,N-dimethylcyclo-hexanamine] the figure was at least 5000 nM. `Cc1nc2c(N[C@H]3CC[C@H](N(C)C)CC3)ncnc2s1` [Compound I-4, (1r,4r)-N1,N1-dimethyl-N4-(2-methylthiazolo[5,4-d]pyrimidin-7-yl)cyclo-hexane-1,4-diamine] gave an IC50 of 1000 to 5000 nM. The molecule `CCc1nc2c(N[C@H]3CC[C@H](N4CCOCC4)CC3)ncnc2s1` [Compound I-5, 2-ethyl-N-((1r,4r)-4-morpholinocyclohexyl)thiazolo[5,4-d]pyrimidin-7-amine] registered an IC50 of 1000 to 5000 nM.

As for `CCc1nc2c(N(CC)[C@H]3CC[C@H](N4CCOCC4)CC3)ncnc2s1` [Compound I-6, N,2-diethyl-N-((1r,4r)-4-morpholinocyclohexyl)thiazolo[5,4-d]pyrimidin-7-amine], the IC50 was at least 5000 nM. With `CCc1nc2c(N[C@H]3CC[C@H](N4CCC(F)(F)CC4)CC3)nc(Nc3cnn(C)c3)nc2s1` [Compound I-11, N7-((1r,4r)-4-(4,4-difluoropiperidin-1-yl)cyclohexyl)-2-ethyl-N5-(1-methyl-1H-pyrazol-4-yl)thiazolo[5,4-d]pyrimidine-5,7-diamine] the figure was 1000 to 5000 nM; with `CCc1nc2c(N[C@H]3CC[C@H](N(C)CC(=O)N4CCCC4)CC3)nc(Nc3cnn(C)c3)nc2s1` [Compound I-15, 2-(((1r,4r)-4-((2-ethyl-5-((1-methyl-1H-pyrazol-4-yl)amino)-thiazolo[5,4-d]pyrimidin-7-yl)amino)cyclohexyl)(methyl)amino)-1-(pyrrolidin-1-yl)ethan-1-one], at most 1000 nM.

The molecule `CCc1nsc2ncnc(N[C@H]3CC[C@H](N4CCOCC4)CC3)c12` [Compound I-20, 3-ethyl-N-((1r,4r)-4-morpholinocyclohexyl)isothiazolo[5,4-d]pyrimidin-4-amine] came in with an IC50 of 1000 to 5000 nM.

As for `CCc1nc2c(N[C@H]3CC[C@H](N4CCOCC4)CC3)nc(N)nc2s1` [Compound I-31, 2-ethyl-N7-((1r,4r)-4-morpholinocyclohexyl)thiazolo[5,4-d]pyrimidine-5,7-diamine], the IC50 was at least 5000 nM.

In turn, `CC(=O)c1nc2c(N[C@H]3CC[C@H](N4CCOCC4)CC3)nc(Nc3cnn(C)c3)nc2s1` [Compound I-41, 1-(5-((1-methyl-1H-pyrazol-4-yl)amino)-7-(((1r,4r)-4-morpholinocyclohexyl)amino)thiazolo[5,4-d]pyrimidin-2-yl)ethan-1-one] came in with an IC50 of at most 1000 nM. Take `Cc1nc2c(N[C@H]3CC[C@H](N4CCOCC4)CC3)nc(N)nc2s1` [Compound I-43, 2-methyl-N7-((1r,4r)-4-morpholinocyclo-hexyl)thiazolo[5,4-d]pyrimidine-5,7-diamine]: the 50% inhibitory concentration (IC50) is at least 5000 nM.

The molecule `Cn1cc(Nc2nc(N[C@H]3CC[C@H](N4CCOCC4)CC3)c3nc(C(F)(F)F)sc3n2)cn1` [Compound I-44, N5-(1-methyl-1H-pyrazol-4-yl)-N7-((1r,4r)-4-morpholino-cyclohexyl)-2-(trifluoromethyl)thiazolo[5,4-d]pyrimidine-5,7-diamine] gave an IC50 of at most 1000 nM. The value for `Cn1cc(Nc2nc(N[C@H]3CC[C@H](N4CCOCC4)CC3)c3nc(C(F)F)sc3n2)cn1` [Compound I-45, 2-(difluoromethyl)-N5-(1-methyl-1H-pyrazol-4-yl)-N7-((1r,4r)-4-morpholinocyclohexyl)thiazolo[5,4-d]pyrimidine-5,7-diamine] was at most 1000 nM.
